The values below come from patent US20030013685A1, “Process for increasing the egg production and strengthening the eggshells of poultry” (priority 2000, published 2003).

Data set [1] relates to laying hens. The conditions noted are these: cited from earlier work.
The subject of data set [2] is hens of ISA Brown strain. As to the kind of experiment: Laying parameters of hens after a single subcutaneous administration of tiludronic acid (disodium tiludronate) before onset of laying. It counts as in vivo, hen. Conditions: for Age of onset of laying: hens monitored up to 55 weeks old; for Average number of eggs laid per hen and per week / Average total number of eggs laid per hen: from onset of laying up to 55 weeks old. As to the method:
(§1) A total number of 216 hens of ISA Brown strain between 15 and 17 weeks old was divided into 3 groups for the purpose of evaluating the effects on the production of eggs of a single subcutaneous administration of tiludronic acid, in the form of its sodium salt (disodium tiludronate).
(§2) Three doses were compared: 0, 1 and 10 mg/kg (corresponding amount of tiludronic acid/kg). The tiludronic acid was administered in the form of injectable aqueous solutions such that the volume injected per bird was 1 ml per kilo of live weight. The tiludronic acid solutions were thus concentrated to 0.1% and 1% for the doses of 1 and 10 mg/kg, respectively. The control group received a placebo corresponding to water for an injectable preparation. The injections were performed subcutaneously in the region above the superficial pectoral muscle.
The hens were housed in individual cages in the same building at controlled temperature and hygrometry. Each animal was identified by a number carried on a ring attached to a wing. They received the same standard feed for laying hens, freely throughout the duration of the study. Drinking water was also distributed freely.
The average age of onset of laying for the hens in this strain is 20 weeks, with extremes of between 18 and 23 weeks. Consequently, for the hens of this study, the average delay between the treatment and the age of onset of laying had to be from 3 to 5 weeks. The duration of the study was 40 weeks. At the end of the study, the hens were 55 weeks old.
The other half of the total number of hens was monitored in order to collect the following laying parameters: age on laying the first egg and total number of eggs laid up to 55 weeks old. For each group, the average number of eggs laid per hen and per week was calculated over the entire laying period and week by week, in order to establish the laying curves.
(§3) The “age of onset of laying”, “total number of eggs laid per hen”, “number of eggs laid per hen and per week over the entire laying period”, “mechanical strength of the shell”, “thickness of the shell” and “medullary bone volume” criteria were compared by means of a single-factor variance analysis (dose factor).

Data set [3] concerns hens of ISA Brown strain. As to the kind of experiment: Mechanical strength of the eggshell by quasi-static compression. Conditions: for Mechanical strength of the shell at 23 weeks: 23 weeks old; for Mechanical strength of the shell at 54 weeks: 54 weeks old. It is filed as in vivo, hen. As to the method:
as §1, §2
(§4) Moreover, an analysis of the mechanical strength of the shell and the thickness of the mineralized part of the shell was carried out using a sample of 12 hens at the following two dates of maturity: at 23 weeks old (i.e. at the start of laying) and at 54 weeks old. The strength of the shell was measured quantitatively by a technique of quasi-static compression of the eggshell. The thickness of the shell was measured from images obtained with an electron microscope.
as §3

Data set [4] has as its system hens of ISA Brown strain. Description: Thickness of the mineralized part of the shell from electron microscope images. It is filed as in vivo, hen. The conditions noted are these: for Thickness of the mineralized part of the shell at 23 weeks: 23 weeks old; for Thickness of the mineralized part of the shell at 54 weeks: 54 weeks old. As to the method:
as §1, §2, §4, §3

Data set [5] relates to hens of ISA Brown strain. As to the kind of experiment: Histomorphometric examination of tarsometatarsal bone (medullary bone volume). The conditions noted are these: for Multiplication factor of medullary bone volume: onset of laying to 55 weeks old. It counts as in vivo, hen. Here is the method:
as §1, §2
One half of the total number of hens was sacrificed on laying the first egg, in order to carry out a histomorphometric examination. This examination was performed on one of the two tarsometatarsal bones.
At 55 weeks old, all the animals were sacrificed and a histomorphometric examination of one of the tarsometatarsal bones was performed under the same conditions as on the bones of the hens sacrificed on laying of the first egg.
as §3

The mark [6] stands for this setting: treated groups, laying curves FIG. 1 and 2.

The structures appear in SMILES notation. Where two headings read alike, the source gives them in different places.

`NCCCC(O)(P(=O)(O)O)P(=O)(O)O` [alendronate, [4-amino-1-hydroxybutylidene] bisphosphonate]: the Effect on laying result is “complete stoppage of laying” in data set [1] (1 mg/kg subcutaneously every 2 days for 2 weeks, about 18 weeks after onset of laying, within a few days) and “reduction, or even the stopping, of laying” in data set [1] (0.01, 0.1 or 1 mg/kg during laying). For the same compound, the “Effect on the quality of the shell” value in data set [1] (administration during laying, more pronounced the higher the dose) is on record as “adverse change in the quality of the shell”.
Consider `O=P(O)(O)C(Sc1ccc(Cl)cc1)P(=O)(O)O` [tiludronic acid, 4-chlorophenylthiomethylenebisphosphonic acid], for which, in data set [2] (1 mg/kg), the “Total number of eggs laid per hen versus control group (2-by-2 analysis)” value was “significantly higher”; the “Average number of eggs laid per hen and per week” value is given as 6.53 ± 0.27; the “Average total number of eggs laid per hen” value was 221.6 ± 11.2. The “Age of onset of laying” value in data set [2] (1 mg/kg single subcutaneous dose) is 148.3 ± 7.8 days. Further, the “Start of laying on average after the hens of the other 2 groups” value in data set [2] (1 mg/kg, no significant difference (p=0.11)) stood at 3 days. Besides, in data set [2] (10 mg/kg single subcutaneous dose), the “Age of onset of laying” value is given as 145.1 ± 8.8 days. In data set [2] (10 mg/kg), the “Average number of eggs laid per hen and per week” value was determined as 6.39 ± 0.34; the “Average total number of eggs laid per hen” value came out at 219.8 ± 12.6. Moreover, in data set [2] (setting [6]), the “Laying peak compared with control group” value is “higher” and the “Slope of the laying curve compared with controls” value is listed as “substantially smaller”. The “Change in the age of onset of laying” value in data set [2] (treatment with tiludronic acid, 1 and 10 mg/kg) is listed as “did not result in any change”. Also, in data set [3] (1 mg/kg), the “Mechanical strength of the shell at 23 weeks” value was 39.3 ± 5.2 N and the “Mechanical strength of the shell at 54 weeks” value is given as 28.3 ± 4.9 N. Moreover, in data set [3] (10 mg/kg), the “Mechanical strength of the shell at 23 weeks” value came out at 41.5 ± 6.3 N and the “Mechanical strength of the shell at 54 weeks” value worked out at 30.3 ± 6.1 N. Also, the “Loss of mechanical strength of the eggshells between the two maturity dates of measurement” value in data set [3] (two treated groups (1 and 10 mg/kg), between 23 and 54 weeks) is “about −28%”. Further, in data set [4] (1 mg/kg), the “Thickness of the mineralized part of the shell at 23 weeks” value is 0.256 ± 0.025 mm and the “Thickness of the mineralized part of the shell at 54 weeks” value is reported as 0.267 ± 0.026 mm. In addition, in data set [4] (10 mg/kg), the “Thickness of the mineralized part of the shell at 23 weeks” value turned out to be 0.272 ± 0.013 mm and the “Thickness of the mineralized part of the shell at 54 weeks” value is 0.273 ± 0.021 mm. Also, in data set [5] (1 mg/kg), the “Volume of medullary bone of the tarsometatarsal bone at 55 weeks old” value is 2.75 ± 2.72%, the “Volume of medullary bone of the tarsometatarsal bone at the onset of laying” value is given as 0.31 ± 0.53% and the “Multiplication factor of medullary bone volume” value is given as 9. Moreover, in data set [5] (10 mg/kg), the “Volume of medullary bone of the tarsometatarsal bone at 55 weeks old” value is given as 3.53 ± 3.04%, the “Volume of medullary bone of the tarsometatarsal bone at the onset of laying” value is given as 0.26 ± 0.33% and the “Multiplication factor of medullary bone volume” value is 13.
